Series [1] can be described thus: in vitro. The arrangement: Viability of infected HeLa host cells, resazurin conversion, bulk resorufin fluorescence relative to DMSO. The note with it: human, hela cells; bulk resorufin, mean of 2.
Series [2] relates to T1, C. trachomatis L2/434/Bu expressing GFP (CTL2-GFP).
T1 construct: L2/434/Bu GFP intracellular growth in HeLa cells
The experiment in a line: microbe, parasite or virus in culture. The arrangement: C. trachomatis total inclusion area by high-content imaging, normalised to DMSO. As to conditions: Chlamydia trachomatis, HeLa, 28.5 h; total inclusion area; read-out: % of control remaining. From the text:
We screened a library of 36,785 small molecules displaying drug-like properties and covering a wide chemical space (Fig 1A and S2A Data). In this process, we also complemented the assay described above with an imaging-based readout (Fig 1B). After measurements of bulk GFP and resorufin fluorescence, cells were fixed, stained with the DNA dye Hoechst, and imaged at a high-content imaging platform to detect chlamydial inclusions (GFP) and host cell nuclei (Hoechst). The total area and number of inclusions in individual wells and the number of nuclei then served as additional proxies for chlamydial growth and host cell viability. […] MICs were calculated as described above.

Series [3] concerns T2, CTL2-GFP (C. trachomatis L2/434/Bu, GFP-expressing).
T2 construct: L2/434/Bu, GFP-expressing
The series is described as follows: microbe, parasite or virus in culture. The arrangement: Intracellular C. trachomatis growth in HeLa cells, bulk GFP fluorescence relative to DMSO. As to conditions: Chlamydia trachomatis, HeLa, 28.5 h; bulk GFP, mean of 2; read-out: % of control remaining. On the procedure: MICs were calculated as described above.

The nature of series [4]: in vitro. As to conditions: human, hela cells, % viability.

Here are results for 21 compounds from paper PMC12040169 (PLOS Biology, 2025).

By viability is commonly meant a read-out of living cells in per cent, often relative to untreated cells. For `CC(=O)NC[C@H]1CN(c2ccc3c(c2)CCN(C(C)=O)CC3)C(=O)O1` [CBK018491], in the series “in vitro [1]”, the viability at 28.5 h, 1 µM was 91.8%; the viability at 28.5 h, 5 µM amounted to 95.1%; the viability at 28.5 h, 10 µM is 112%. Further, in series [2], the activity at 1 µM stood at 57.6%, the activity at 5 µM turned out to be 10.2% and the activity at 10 µM was found to be 1.08%. In addition, in series [3], the activity at 1 µM was found to be 112%, the activity at 5 µM is 8.52% and the activity at 10 µM was found to be 0.0674%.
Consider `Cc1noc(NS(=O)(=O)c2ccc(NC(=O)/C=C/c3ccc(C(C)C)cc3)cc2)c1C` [CBK265430], for which, in the series “in vitro [1]”, the viability at 28.5 h, 1 µM was 108%; the viability at 28.5 h, 5 µM was found to be 102%; the viability at 28.5 h, 10 µM was 106%. In series [2], the activity at 1 µM amounted to 69.9%, the activity at 5 µM stood at 23.1% and the activity at 10 µM is 22.2%. Moreover, in series [3], the activity at 1 µM came to 66.5%, the activity at 5 µM came out at 26.3% and the activity at 10 µM is 11.6%.
Consider `CC(=O)NC[C@H]1CN(c2ccc(-c3nnc(C(C)O)s3)c(F)c2)C(=O)O1` (stereo partly shown) [CBK017968], for which, in the series “in vitro [1]”, the viability at 28.5 h, 1 µM was determined as 91.4%; the viability at 28.5 h, 5 µM was found to be 90.3%; the viability at 28.5 h, 10 µM turned out to be 90.8%. Further, in series [2], the activity at 1 µM was determined as 46.6%, the activity at 5 µM was determined as 0.644% and the activity at 10 µM is 0.166%. In series [3], the activity at 1 µM stood at 51.4%, the activity at 5 µM was 2.06% and the activity at 10 µM is 5.93%.
Consider `O=C(CC1CCN(CCc2ccccc2)CC1)Nc1cccc(-n2cccn2)c1` [CBK285951], for which, in the series “in vitro [1]”, the viability at 28.5 h, 1 µM was 91.7%; the viability at 28.5 h, 5 µM amounted to 87.4%; the viability at 28.5 h, 10 µM worked out at 88.6%. In series [2], the activity at 1 µM is 13.7%, the activity at 5 µM stood at 0.475% and the activity at 10 µM was determined as 0.166%. In series [3], the activity at 1 µM was 11.3%, the activity at 5 µM was found to be 5.45% and the activity at 10 µM is 1.48%.
For the compound `COc1ccc(-c2csc(/C(C#N)=C/Nc3ccc(S(=O)(=O)Nc4nccs4)cc3)n2)cc1` [CBK262374], in “in vitro [1]”, the viability at 28.5 h, 1 µM turned out to be 99.9%; the viability at 28.5 h, 5 µM was determined as 95.6%; the viability at 28.5 h, 10 µM is 96.2%. Also, in series [2], the activity at 1 µM is 134%, the activity at 5 µM turned out to be 95% and the activity at 10 µM worked out at 96.5%. For the same compound, in series [3], the activity at 1 µM was determined as 146%, the activity at 5 µM was determined as 131% and the activity at 10 µM amounted to 113%.
Regarding `O=C(CCN1CCCCC1)Nc1ccc2c(=O)n3c(nc2c1)/C(=C/c1ccccc1)CC3` [CBK017786], in the series “in vitro [1]”, the viability at 28.5 h, 1 µM is 91.6%; the viability at 28.5 h, 5 µM stood at 90.4%; the viability at 28.5 h, 10 µM came to 92.6%. In series [2], the activity at 1 µM was found to be 109%, the activity at 5 µM amounted to 20.7% and the activity at 10 µM amounted to 10.4%. Besides, in series [3], the activity at 1 µM is 142%, the activity at 5 µM was 56.7% and the activity at 10 µM is 26.3%.
For the compound `COc1ccc([C@@]23CC[C@@H](NC(=O)c4ccc(-c5ccccc5)cc4)CC2N(C)CC3)cc1OC` (stereo partly shown) [CBK074973T], in “in vitro [1]”, the viability at 28.5 h, 1 µM is 93.9%; the viability at 28.5 h, 5 µM stood at 94.3%; the viability at 28.5 h, 10 µM came to 87.1%. Besides, in series [2], the activity at 1 µM was found to be 118%, the activity at 5 µM is 93.3% and the activity at 10 µM came to 31.1%. Besides, in series [3], the activity at 1 µM is 113%, the activity at 5 µM was 78.4% and the activity at 10 µM amounted to 39.7%.
As to `Cc1noc(-c2ccc3c(c2O)OCCO3)c1-c1ccc(Cl)cc1` [CBK018086], in the series “in vitro [1]”, the viability at 28.5 h, 1 µM came out at 96.5%; the viability at 28.5 h, 5 µM stood at 97.6%; the viability at 28.5 h, 10 µM stood at 99%. Also, in series [2], the activity at 1 µM came to 73.6%, the activity at 5 µM was 0.782% and the activity at 10 µM is 0.691%. Moreover, in series [3], the activity at 1 µM turned out to be 62.5%, the activity at 5 µM was 3.44% and the activity at 10 µM was 2.13%.
For the compound `COc1cc(NS(=O)(=O)c2ccc(N/C=C3/CCc4ccccc4C3=O)cc2)nc(OC)n1` [CBK263376], in “in vitro [1]”, the viability at 28.5 h, 1 µM stood at 101%; the viability at 28.5 h, 5 µM came to 99.1%; the viability at 28.5 h, 10 µM worked out at 78.6%. In series [2], the activity at 1 µM worked out at 83.5%, the activity at 5 µM amounted to 48.7% and the activity at 10 µM worked out at 12.5%. Besides, in series [3], the activity at 1 µM was 108%, the activity at 5 µM amounted to 26% and the activity at 10 µM turned out to be 22.7%.
On to `O=[N+]([O-])c1ccc(-n2cnc3ccccc32)c([N+](=O)[O-])c1` [CBK261120], for which, in the series “in vitro [1]”, the viability at 28.5 h, 1 µM amounted to 107%; the viability at 28.5 h, 5 µM came to 88.2%; the viability at 28.5 h, 10 µM was determined as 111%. Besides, in series [2], the activity at 1 µM came to 86.4%, the activity at 5 µM amounted to 46.4% and the activity at 10 µM worked out at 2.35%. Moreover, in series [3], the activity at 1 µM worked out at 104%, the activity at 5 µM is 40.1% and the activity at 10 µM amounted to 0%.
Consider `O=[N+]([O-])c1cc([N+](=O)[O-])c2cccnc2c1NNc1nncc2ccccc12` [CBK110409], for which, in “in vitro [1]”, the viability at 28.5 h, 1 µM came to 93%; the viability at 28.5 h, 5 µM is 89.1%; the viability at 28.5 h, 10 µM was found to be 86.6%. Further, in series [2], the activity at 1 µM worked out at 108%, the activity at 5 µM worked out at 63.9% and the activity at 10 µM was determined as 31%. Besides, in series [3], the activity at 1 µM came to 107%, the activity at 5 µM was 69% and the activity at 10 µM was 22.1%.
On to `CC(NC(C)(C)C)C(O)COc1ccc(Cl)c2c1C1CCC2CC1` (stereo not shown) [CBK017752C], for which, in the series “in vitro [1]”, the viability at 28.5 h, 1 µM amounted to 90.2%; the viability at 28.5 h, 5 µM turned out to be 95%; the viability at 28.5 h, 10 µM was found to be 92.2%. In addition, in series [2], the activity at 1 µM was found to be 68%, the activity at 5 µM is 78.7% and the activity at 10 µM is 17.5%. In series [3], the activity at 1 µM was found to be 125%, the activity at 5 µM was 126% and the activity at 10 µM is 66.4%.
With `CC(C)c1ccc(/C=C/C(=O)NCc2ccc(NS(C)(=O)=O)cc2)cc1` [CBK161512], in “in vitro [1]”, the viability at 28.5 h, 1 µM was determined as 101%; the viability at 28.5 h, 5 µM amounted to 104%; the viability at 28.5 h, 10 µM is 94.9%. Further, in series [2], the activity at 1 µM worked out at 74.8%, the activity at 5 µM stood at 59.3% and the activity at 10 µM came to 20.9%. In addition, in series [3], the activity at 1 µM came out at 138%, the activity at 5 µM turned out to be 96.2% and the activity at 10 µM was 43.8%.
As to `C1=C(CCNCCc2ccccc2)c2ccccc2C12CCCC2` [CBK024723], in “in vitro [1]”, the viability at 28.5 h, 1 µM was found to be 96.5%; the viability at 28.5 h, 5 µM turned out to be 89.8%; the viability at 28.5 h, 10 µM came out at 97.2%. For the same compound, in series [2], the activity at 1 µM amounted to 112%, the activity at 5 µM was determined as 42.8% and the activity at 10 µM is 0.759%. In series [3], the activity at 1 µM was 137%, the activity at 5 µM was determined as 49.2% and the activity at 10 µM came out at 3.86%.
Regarding `CC1=C(C)C(=NNC(N)=S)C(C)=C(C)C1=NNC(N)=S` [CBK261262], in the series “in vitro [1]”, the viability at 28.5 h, 1 µM came to 90.9%; the viability at 28.5 h, 5 µM was 90.8%; the viability at 28.5 h, 10 µM turned out to be 90.6%. In series [2], the activity at 1 µM was 96.7%, the activity at 5 µM stood at 31.5% and the activity at 10 µM amounted to 17.1%. In addition, in series [3], the activity at 1 µM was determined as 116%, the activity at 5 µM was 39.1% and the activity at 10 µM amounted to 12.7%.
Consider `O=C(c1cccs1)N1C[C@H](c2ccc(F)cc2)[C@H]2CN(Cc3ccccc3)CC[C@H]21` [CBK285544], for which, in the series “in vitro [1]”, the viability at 28.5 h, 1 µM was determined as 93.4%; the viability at 28.5 h, 5 µM was 91.7%; the viability at 28.5 h, 10 µM came to 95.5%. Further, in series [2], the activity at 1 µM amounted to 74.8%, the activity at 5 µM came out at 78.2% and the activity at 10 µM stood at 59.8%. Moreover, in series [3], the activity at 1 µM was determined as 93.9%, the activity at 5 µM turned out to be 109% and the activity at 10 µM turned out to be 115%.
Consider `O=C(O)c1cn(C2CC2)c2cc(N3CCNCC3)c(F)cc2c1=O` [CBK011645], for which, in series [2], the activity at 1 µM stood at 11.1%, the activity at 5 µM amounted to 0.824% and the activity at 10 µM stood at 0.167%. In series [3], the activity at 1 µM turned out to be 12.8%, the activity at 5 µM amounted to 1.31% and the activity at 10 µM is 0%.
For `OCCc1ccc(Nc2cc(-c3ccc4c(c3)OCO4)ncn2)cc1` [CBK090767], in the series “in vitro [4]”, the viability at 28.5 h, 10 µM came to 97.8%.
Still for that read-out and setting: the figure for `O=C(O)CCc1ccc(-c2cc(N3CCN(CC(=O)N4CCCC4)CC3)ncn2)cc1` [CBK091079] is 104%; for `COc1cccc(C(=O)NCCC(=O)N2CCOCC2)c1` [CBK304639] it is 104%.
Regarding `COc1ccc(-c2ccc(OC)cc2C(=O)Nc2ccc3c(c2)OCC(=O)N3)cc1` [CBK285821], the viability at 28.5 h, 10 µM in “in vitro [4]” stood at 101%.
